Assay results from patent US20100273876A1, “ANTIBACTERIAL FORMULATION COMPRISING A DIALKYL SULPHOSUCCINATE AND A CARBANILIDE ANTIBACTERIAL AGENT” (priority 2007, published 2010).

Experiments:
Por. gingivalis 381 = assay: Biofilm disruption assay on hydroxyapatite discs; type: cell-based, Porphyromonas gingivalis; conditions: Por. gingivalis 381 biofilm, DOSS 0.5% (w/v), CHX 0.2% (w/v)
Experimental: This assay was designed to determine quantitatively the relative potency of a test compound to disrupt (effectively kill) biofilms formed by a test organism on hydroxyapatite (HA) discs.
Biofilms were formed on sterile dense ceramic HA discs 7 mm diameter x 1.8 mm thick (Clarkson Chromatography) by placing the discs in the appropriate liquid media (as described above) inoculated with the test organism (0.5×10^8 cfu/ml). The HA discs were then incubated at 37° C. for ˜48 h in a 5% CO2 atmosphere (for Strep. mutans ATCC 25175) or ˜96 h under anaerobic conditions (for Por. gingivalis 381). Following the incubation period the supernatant was removed from the wells containing the HA discs and the discs were washed×3 with fresh media to ensure all planktonic cells were removed. The HA discs were then transferred to sterile bijoux bottles containing 1 ml of phosphate buffered saline (PBS) plus test compound(s) at the required concentration. After a set time period (usually 2 and/or 5 min), the HA disc was transferred to another sterile bijoux containing 1 ml of fresh growth media. Adherent cells were then harvested by vigorous vortexing for 2 minutes. A sample was then taken, serially diluted 10-fold in fresh growth media and inoculated onto agar plates in triplicate. Untreated HA discs, and HA discs added to PBS containing only the solvents used to dissolve the test compound(s), acted as controls.
The plates were then incubated as described above and subsequently examined visually for growth. Colonies were counted at an appropriate serial dilution (5-50 individual colonies visible) with the aid of a colony counter. These measurements were then converted to numbers of colony forming units (cfu), using the formula: cfu/ml=number of colonies×serial dilution factor×100 (as only a 10 μl sample was taken).
These cfu values were then converted into log10 values and plotted graphically against time of sample removal.
At each time point, samples were assessed in triplicate; the final cfu/ml value was an average (mean) of the three readings.
Biofilm disruption assays, as described above, were carried out using DOSS as the test compound and chlorhexidine (CHX) as a positive control. For these experiments, the DOSS was tested at 0.5% w/v against Por. gingivalis and 1% w/v against Strep. mutans. The ahlorhexidine was tested at a concentration of 0.2% w/v against both micro-organisms. The DOSS was dissolved in ethanol and the chlorhexidine in distilled water. All the experiments were conducted in triplicate.

P. acnes PRP-002 = assay: Agar dilution MIC assay; type: cell-based, Propionibacterium acnes; conditions: P. acnes PRP-002 (Tet/MLS)
Experimental: (§1) The propionibacteria were cultured and maintained on Wilkins-Chalgren Anaerobe Medium (agar and broth) at pH 6.0; all cultures were incubated anaerobically at 37° C. for 72 hours.
(§2) This is a standard international method for quantitatively assessing the antimicrobial activity of a compound in a solid medium. The test compound was prepared to 40× the highest concentration required (eg, 10 mg/ml for a final concentration of 250 μg/ml) and a series of doubling dilutions were performed in a suitable solvent. A set amount of these antimicrobial stock solutions was then added to molten agar medium (ca. 55° C.), mixed thoroughly, poured into sterile Petri dishes and allowed to cool/set.
(§3) A Multipoint™ Inoculator (AQS Manufacturing Ltd, UK) was used to inoculate the plates by spotting the inocula onto the surface of the agar, delivering approximately 1 to 2 μl per spot (yielding 10^5 CFU(colony forming units) per spot).
(§4) The plate(s) were then incubated under the conditions described above, following which they were examined visually for signs of bacterial growth. The MIC value was ascertained when there was a marked reduction in, or total loss of, growth on the test plate at the lowest concentration as compared to that of the growth on the control plate.
(§5) The assays were conducted in duplicate and included a positive control (culture medium, diluting solvent and inoculum).

P. acnes PRP-010 = assay: Agar dilution MIC assay; type: cell-based, Propionibacterium acnes; conditions: P. acnes PRP-010 (MLSK)
Experimental: as §1, §2, §3, §4, §5

P. acnes PRP-023 = assay: Agar dilution MIC assay; type: cell-based, Propionibacterium acnes; conditions: P. acnes PRP-023 (MLSK)
Experimental: as §1, §2, §3, §4, §5

P. acnes PRP-004 = assay: Agar dilution MIC assay; type: cell-based, Propionibacterium acnes; conditions: P. acnes PRP-004 (Tet)
Experimental: as §1, §2, §3, §4, §5

P. acnes PRP-003 = assay: Agar dilution MIC assay; type: cell-based, Propionibacterium acnes; conditions: P. acnes PRP-003 (Tet)
Experimental: as §1, §2, §3, §4, §5

P. acnes PRP-026 = assay: Agar dilution MIC assay; type: cell-based, Propionibacterium acnes; conditions: P. acnes PRP-026 (MLS)
Experimental: as §1, §2, §3, §4, §5

P. acnes PRP-007 = assay: Agar dilution MIC assay; type: cell-based, Propionibacterium acnes; conditions: P. acnes PRP-007 (Clin)
Experimental: as §1, §2, §3, §4, §5

P. acnes PRP-039 = assay: Agar dilution MIC assay; type: cell-based, Propionibacterium acnes; conditions: P. acnes PRP-039 (Tet/MLS)
Experimental: as §1, §2, §3, §4, §5

P. acnes PRP-102 = assay: Agar dilution MIC assay; type: cell-based, Propionibacterium acnes; conditions: P. acnes PRP-102 (Tet/MLS)
Experimental: as §1, §2, §3, §4, §5

P. acnes PRP-046 = assay: Agar dilution MIC assay; type: cell-based, Propionibacterium acnes; conditions: P. acnes PRP-046 (resistance None)
Experimental: as §1, §2, §3, §4, §5

P. acnes PRP-017 = assay: Agar dilution MIC assay; type: cell-based, Propionibacterium acnes; conditions: P. acnes PRP-017 (MLS)
Experimental: as §1, §2, §3, §4, §5

P. acnes PRP-101 = assay: Agar dilution MIC assay; type: cell-based, Propionibacterium acnes; conditions: P. acnes PRP-101 (Tet/MLS)
Experimental: as §1, §2, §3, §4, §5

P. acnes PRP-059 = assay: Agar dilution MIC assay; type: cell-based, Propionibacterium acnes; conditions: P. acnes PRP-059 (MLS)
Experimental: as §1, §2, §3, §4, §5

P. acnes PRP-068 = assay: Agar dilution MIC assay; type: cell-based, Propionibacterium acnes; conditions: P. acnes PRP-068 (Ery)
Experimental: as §1, §2, §3, §4, §5

P. acnes PRP-008 = assay: Agar dilution MIC assay; type: cell-based, Propionibacterium acnes; conditions: P. acnes PRP-008 (Clin)
Experimental: as §1, §2, §3, §4, §5

P. acnes PRP-053 = assay: Agar dilution MIC assay; type: cell-based, Propionibacterium acnes; conditions: P. acnes PRP-053 (Tet/MLS)
Experimental: as §1, §2, §3, §4, §5

Substance: dioctyl sodium sulphosuccinate [DOSS]
- Viable cell counts (Por. gingivalis 381; 0 min): 7.53 log10 cfu/ml
- Viable cell counts (Por. gingivalis 381; 2 min): 5.08 log10 cfu/ml
- Viable cell counts (Por. gingivalis 381; 5 min): 3.34 log10 cfu/ml
- MIC (P. acnes PRP-002): 15.6 µg/mL
- MIC (P. acnes PRP-010): 15.6 µg/mL
- MIC (P. acnes PRP-023): 15.6 µg/mL
- MIC (P. acnes PRP-004): 15.6 µg/mL
- MIC (P. acnes PRP-003): 15.6 µg/mL
- MIC (P. acnes PRP-026): 15.6 µg/mL
- MIC (P. acnes PRP-007): 15.6 µg/mL
- MIC (P. acnes PRP-039): 15.6 µg/mL
- MIC (P. acnes PRP-102): 31.25 µg/mL
- MIC (P. acnes PRP-046): 15.6 µg/mL
- MIC (P. acnes PRP-017): 15.6 µg/mL
- MIC (P. acnes PRP-101): 15.6 µg/mL
- MIC (P. acnes PRP-059): 15.6 µg/mL
- MIC (P. acnes PRP-068): 15.6 µg/mL
- MIC (P. acnes PRP-008): 15.6 µg/mL
- MIC (P. acnes PRP-053): 15.6 µg/mL
